These results are taken from US9975861B2, “Dual inhibitor compounds for use in the treatment of neurodegenerative disorders and alzheimer's disease” (FONDAZIONE ISTITUTO ITALIANO DI TECNOLOGIA, priority 2014, dated 2018).

One assay concerns the target Human recombinant GSK-3β (Homo sapiens (Human), UniProt P49841). Kind of assay: Inhibition of GSK-3β (Kinase-Glo luminescent kinase assay). It is filed as biochemical. As to conditions: 1 μM ATP, 25 μM substrate, 30 minutes at 30° C. As for the experimental part:
Human recombinant GSK-3β was purchased from Millipore (Millipore Iberica S.A.U.) The prephosphorylated polypeptide substrate was purchased from Millipore (Millipore Iberica SAU). Kinase-Glo Luminescent Kinase Assay was obtained from Promega (Promega Biotech Iberica, SL). ATP and all other reagents were from Sigma-Aldrich. Assay buffer contained 50 mM 4-(2-hydroxyethyl)-1-piperazineethanesulfonic acid (HEPES) (pH 7.5), 1 mM ethylenediaminetetraacetic acid (EDTA), 1 mM ethylene glycol tetraacetic acid (EGTA), and 15 mM magnesium acetate. The method developed by Baki was followed [Baki et al. Assay and Drug Development Technologies 2007, 5(1),75-83] to analyze the inhibition of GSK-3β. Kinase-Glo assays were performed in assay buffer using white 96-well plates. In a typical assay, 10 μL (10 μM) of test compound (dissolved in DMSO at 1 mM concentration and diluted in advance in assay buffer to the desired concentration) and 10 μL (20 ng) of enzyme were added to each well followed by 20 μL of assay buffer containing 25 μM substrate and 1 μM adenosine triphosphate (ATP). […] After a 30 minutes incubation at 30° C., the enzymatic reaction was stopped with 40 μL of Kinase-Glo reagent. Glow-type luminescence was recorded after 10 minutes using a Fluoroskan Ascent multimode reader.
The activity is proportional to the difference of the total and consumed ATP.
A general note: Kinase-Glo reads ATP consumption through a luciferase reaction.

Another assay has as its target β-secretase (BACE-1) (Homo sapiens (Human), UniProt P56817). The assay is described as follows: Inhibition of BACE-1 (fluorogenic APP-mimicking peptide substrate). As to conditions: BACE-1 IC50 (μM), substrate 3 μM, 1 hour pre-incubation at rt, 15 minutes at 37° C.

β-secretase (BACE-1), sequence (P56817 46-501): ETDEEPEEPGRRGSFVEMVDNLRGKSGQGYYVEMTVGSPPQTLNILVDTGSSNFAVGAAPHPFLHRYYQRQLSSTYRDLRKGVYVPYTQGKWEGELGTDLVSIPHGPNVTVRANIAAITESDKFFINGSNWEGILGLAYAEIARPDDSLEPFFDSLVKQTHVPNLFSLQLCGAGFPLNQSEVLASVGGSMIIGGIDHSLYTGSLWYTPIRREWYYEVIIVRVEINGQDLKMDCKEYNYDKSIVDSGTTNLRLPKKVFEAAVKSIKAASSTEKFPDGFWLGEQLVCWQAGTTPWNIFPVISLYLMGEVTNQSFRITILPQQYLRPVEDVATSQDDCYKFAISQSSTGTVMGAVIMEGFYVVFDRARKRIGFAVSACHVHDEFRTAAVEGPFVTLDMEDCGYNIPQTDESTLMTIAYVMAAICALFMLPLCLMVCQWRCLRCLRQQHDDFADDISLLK
Human recombinant GSK-3β, sequence (P49841 whole entry): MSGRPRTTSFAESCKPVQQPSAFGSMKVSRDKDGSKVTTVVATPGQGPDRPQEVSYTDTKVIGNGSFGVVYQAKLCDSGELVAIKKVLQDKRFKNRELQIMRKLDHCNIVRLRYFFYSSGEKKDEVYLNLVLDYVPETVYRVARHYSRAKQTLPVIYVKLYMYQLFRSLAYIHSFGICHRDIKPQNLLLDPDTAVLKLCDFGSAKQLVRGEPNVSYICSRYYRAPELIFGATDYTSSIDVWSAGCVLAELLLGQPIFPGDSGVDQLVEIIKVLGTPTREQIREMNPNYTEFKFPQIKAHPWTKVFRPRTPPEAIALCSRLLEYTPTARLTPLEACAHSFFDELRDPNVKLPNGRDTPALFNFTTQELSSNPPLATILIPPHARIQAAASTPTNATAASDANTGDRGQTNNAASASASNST
Procedure for β-secretase (BACE-1): β-secretase (BACE-1, Sigma-Aldrich) inhibition studies were performed by employing a peptide mimicking APP sequence as substrate (Methoxycoumarin-[sequence]dinitrophenyl, M-2420, Bachem, Germany). The following procedure was employed: 5 μL of test compounds (or DMSO, if preparing a control well) were pre-incubated with 175 μL of enzyme (in 20 mM sodium acetate containing 3-[(3-Cholamidopropyl)dimethylammonio]-1-propanesulfonate (CHAPS) 0.1% w/v) for 1 hour at rt. The substrate (3 μM, final concentration) was then added and left to react for 15 minutes at 37° C. The fluorescence signal was read at λem=405 nm (λexc=320 nm) using a Fluoroskan Ascent. […] The fluorescence intensities with and without inhibitor were compared and the percent inhibition due to the presence of test compounds was calculated. The background signal was measured in control wells containing all the reagents, except BACE-1 and subtracted. The % inhibition due to the presence of increasing test compound concentration was calculated by the following expression: 100−(IFi/IFo×100) where IFi and IFo are the fluorescence intensities obtained for BACE-1 in the presence and in the absence of inhibitor, respectively. […] The linear regression parameters were determined and the IC50 extrapolated (GraphPad Prism 4.0, GraphPad Software Inc.).

The IC50 is the concentration that gives 50% inhibition. Consider `CCCNC1=NC(c2ccc(F)cc2)NC(=O)N1` (centres unmarked) [Example 6, 4-(4-fluorophenyl)-6-(propylamino)-3,4-dihydro-1,3,5-triazin-2(1H)-one], for which the IC50 on Human recombinant GSK-3β was found to be 4.34 ± 0.63 µM; on β-secretase (BACE-1), 36.8 ± 9.85 µM.
